According to US20070298105A1, “METHODS OF TREATING CONDITIONS BY SUSTAINED RELEASE ADMINISTRATION OF BENZIMIDAZOLE DERIVATIVES” (priority 2006, published 2007):
Like-named read-outs stand apart in the source and are kept apart here.

Assays:
intragastric pH = experiment: Colonic intubation study: intragastric pH profile (percent of time with pH >4); format: in vivo, human
Procedure: A single-dose, open-label, partially randomized, five-treatment, five-period, crossover pilot study was performed in healthy males to determine relative pharmacokinetics of rabeprazole, and comparators when dosed either orally or colonically. The study was a single dose study with blood sampling up to 24 hours following initiation.
Treatments A and B were rabeprazole sodium solution dosed to provide 30 and 60 mg, respectively, over 20 hours in the transverse colon of the subjects. Colonic dosing occurred using a nasoenteral tube. Treatment C was a single 20 mg dose of rabeprazole sodium oral enteric coated tablets dosed orally. Treatment D was placebo (200 mL of water) dosed orally.
The intragastric pH profile was analyzed based on the percentage of time that the intragastric pH was above 4, which was calculated for the full 24 hours. In addition, the mean pH value over 5 time intervals of 6 hours each during the 30-hr sampling time was also estimated.

[1] = Colonic intubation study: plasma pharmacokinetics of rabeprazole and esomeprazole; format: in vivo, human; details: for AUC(0-inf): read-out: AUCinf (mean)
Procedure: A single-dose, open-label, partially randomized, five-treatment, five-period, crossover pilot study was performed in healthy males to determine relative pharmacokinetics of rabeprazole, and comparators when dosed either orally or colonically. The study was a single dose study with blood sampling up to 24 hours following initiation. […] Colonic dosing occurred using a nasoenteral tube. Treatment C was a single 20 mg dose of rabeprazole sodium oral enteric coated tablets dosed orally. Treatment D was placebo (200 mL of water) dosed orally. […] For subjects whose apparent elimination rate constant [k] could not be properly determined, the AUC to infinity [AUCinf]) was calculated based on the median apparent elimination constant [k] of the subjects with available t1/2 values in the same treatment period. […] The intragastric pH profile were determined.

[2] = male, human, plasma, other: colonic (nasoenteral tube into the transverse colon), 30 mg, TRT A: rabeprazole 30 mg solution in the colon over 20 hours, N = 19
[3] = male, human, plasma, other: colonic (nasoenteral tube into the transverse colon), 30 mg, TRT A: rabeprazole 30 mg solution in the colon over 20 hours, subset N = 14
[4] = male, human, plasma, other: colonic (nasoenteral tube into the transverse colon), 60 mg, TRT B: rabeprazole 60 mg solution in the colon over 20 hours, N = 19
[5] = male, human, plasma, other: colonic (nasoenteral tube into the transverse colon), 60 mg, TRT B: rabeprazole 60 mg solution in the colon over 20 hours, subset N = 14
[6] = male, human, plasma, po, 20 mg, TRT C: rabeprazole 20 mg oral tablet, N = 19
[7] = male, human, plasma, po, 20 mg, TRT C: rabeprazole 20 mg oral tablet, subset N = 14

SMILES: COCCCOc1ccnc(C[S+]([O-])c2nc3ccccc3[nH]2)c1C (centres unmarked) [Rabeprazole, 2-[[[4-(3-methoxypropoxy)-3-methyl-2-pyridinyl]-methyl]sulfinyl]-1H-benzimidazole]
- Mean percent of time with pH >4 (intragastric pH; 0-6 hr (10 am-4 pm), TRT A: rabeprazole 30 mg solution in the colon, N = 19): 30.6%
- Mean percent of time with pH >4 (intragastric pH; 0-6 hr (10 am-4 pm), TRT B: rabeprazole 60 mg solution in the colon, N = 19): 32.6%
- Mean percent of time with pH >4 (intragastric pH; 0-6 hr (10 am-4 pm), TRT B: rabeprazole 60 mg solution in the colon, subset N = 14): 34.6%
- Mean percent of time with pH >4 (intragastric pH; 0-6 hr (10 am-4 pm), TRT C: rabeprazole 20 mg oral tablet, N = 19): 31.1%
- Mean percent of time with pH >4 (intragastric pH; 0-6 hr (10 am-4 pm), TRT C: rabeprazole 20 mg oral tablet, subset N = 14): 29.1%
- Mean percent of time with pH >4 (intragastric pH; 6-12 hr (4 pm-10 pm), TRT A: rabeprazole 30 mg solution in the colon, N = 19): 37.9%
- Mean percent of time with pH >4 (intragastric pH; 6-12 hr (4 pm-10 pm), TRT B: rabeprazole 60 mg solution in the colon, N = 19): 50.5%
- Mean percent of time with pH >4 (intragastric pH; 6-12 hr (4 pm-10 pm), TRT B: rabeprazole 60 mg solution in the colon, subset N = 14): 55.8%
- Mean percent of time with pH >4 (intragastric pH; 6-12 hr (4 pm-10 pm), TRT C: rabeprazole 20 mg oral tablet, N = 19): 60.9%
- Mean percent of time with pH >4 (intragastric pH; 6-12 hr (4 pm-10 pm), TRT C: rabeprazole 20 mg oral tablet, subset N = 14): 63.6%
- Mean percent of time with pH >4 (intragastric pH; 12-18 hr (10 pm-4 am), TRT A: rabeprazole 30 mg solution in the colon, N = 19): 23.2%
- Mean percent of time with pH >4 (intragastric pH; 12-18 hr (10 pm-4 am), TRT B: rabeprazole 60 mg solution in the colon, N = 19): 34.3%
- Mean percent of time with pH >4 (intragastric pH; 12-18 hr (10 pm-4 am), TRT B: rabeprazole 60 mg solution in the colon, subset N = 14): 39.9%
- Mean percent of time with pH >4 (intragastric pH; 12-18 hr (10 pm-4 am), TRT C: rabeprazole 20 mg oral tablet, N = 19): 25.9%
- Mean percent of time with pH >4 (intragastric pH; 12-18 hr (10 pm-4 am), TRT C: rabeprazole 20 mg oral tablet, subset N = 14): 26.7%
- Mean percent of time with pH >4 (intragastric pH; 18-24 hr (4 am-10 am), TRT A: rabeprazole 30 mg solution in the colon, N = 19): 47.2%
- Mean percent of time with pH >4 (intragastric pH; 18-24 hr (4 am-10 am), TRT B: rabeprazole 60 mg solution in the colon, N = 19): 64.0%
- Mean percent of time with pH >4 (intragastric pH; 18-24 hr (4 am-10 am), TRT B: rabeprazole 60 mg solution in the colon, subset N = 14): 68.9%
- Mean percent of time with pH >4 (intragastric pH; 18-24 hr (4 am-10 am), TRT C: rabeprazole 20 mg oral tablet, N = 19): 37.8%
- Mean percent of time with pH >4 (intragastric pH; 18-24 hr (4 am-10 am), TRT C: rabeprazole 20 mg oral tablet, subset N = 14): 35.4%
- Mean percent of time with pH >4 (intragastric pH; 24-30 hr (10 am-4 pm), TRT A: rabeprazole 30 mg solution in the colon, N = 19): 45.4%
- Mean percent of time with pH >4 (intragastric pH; 24-30 hr (10 am-4 pm), TRT B: rabeprazole 60 mg solution in the colon, N = 19): 64.4%
- Mean percent of time with pH >4 (intragastric pH; 24-30 hr (10 am-4 pm), TRT B: rabeprazole 60 mg solution in the colon, subset N = 14): 72.0%
- Mean percent of time with pH >4 (intragastric pH; 24-30 hr (10 am-4 pm), TRT C: rabeprazole 20 mg oral tablet, N = 19): 43.6%
- Mean percent of time with pH >4 (intragastric pH; 24-30 hr (10 am-4 pm), TRT C: rabeprazole 20 mg oral tablet, subset N = 14): 45.4%
- Mean percent of time with pH >4 (intragastric pH; 24-hr average, TRT A: rabeprazole 30 mg solution in the colon, N = 19): 34.7%
- Mean percent of time with pH >4 (intragastric pH; 24-hr average, TRT A: rabeprazole 30 mg solution in the colon, N = 19, listed as rabeprazole): 35%
- Mean percent of time with pH >4 (intragastric pH; 24-hr average, TRT B: rabeprazole 60 mg solution in the colon, N = 19): 44.9%
- Mean percent of time with pH >4 (intragastric pH; 24-hr average, TRT B: rabeprazole 60 mg solution in the colon, N = 19, listed as rabeprazole): 45%
- Mean percent of time with pH >4 (intragastric pH; 24-hr average, TRT B: rabeprazole 60 mg solution in the colon, subset N = 14): 49.2%
- Mean percent of time with pH >4 (intragastric pH; 24-hr average, TRT C: rabeprazole 20 mg oral tablet, N = 19): 38.9%
- Mean percent of time with pH >4 (intragastric pH; 24-hr average, TRT C: rabeprazole 20 mg oral tablet, N = 19, listed as rabeprazole): 39%
- Mean percent of time with pH >4 (intragastric pH; 24-hr average, TRT C: rabeprazole 20 mg oral tablet, subset N = 14): 38.7%
- dose dependence of percentage of time with pH >4 (intragastric pH; 30 and 60 mg colonic rabeprazole treatments, 6-12 h period and beyond): dose-dependent increase
- effect on percentage of time with pH >4 compared to placebo (intragastric pH; first 6 hours of treatment, rabeprazole Treatments A, B and C): not significantly different from placebo
- gastric pH control compared with rabeprazole 20 mg tablet (intragastric pH; rabeprazole 60 mg colonic treatment, especially during the night-time period (12-30 hr)): better gastric pH control
- dose proportionality of mean Cmax and AUC ([1]; 30 mg and 60 mg colonic treatments): increased approximately dose proportionally
- Tmax ([1]; male, human, plasma, other: colonic (nasoenteral tube into the transverse colon), 30 mg, 30 mg rabeprazole colonic solution treatment, after start of treatment (colon infusion ended at 20 hr), read-out: median Tmax): ~18 h
- AUC(0-t) [1, 2]: 287 ng·h/mL
- AUC(0-inf) [1, 2]: 332 ng·h/mL
- Tmax ([1]; male, human, plasma, other: colonic (nasoenteral tube into the transverse colon), 30 mg, TRT A: rabeprazole 30 mg solution in the colon over 20 hours, N = 19, read-out: Tmax (median)): 18 h
- half-life ([1]; male, human, plasma, other: colonic (nasoenteral tube into the transverse colon), 30 mg, TRT A: rabeprazole 30 mg solution in the colon over 20 hours, N = 19, read-out: t1/2 (median) (converted)): 120 min
- Cmax ([1]; male, human, plasma, other: colonic (nasoenteral tube into the transverse colon), 30 mg, TRT A: rabeprazole 30 mg solution in the colon over 20 hours, single dose, healthy males, N = 19): 18 ng/mL
- AUC(0-t) [1, 3]: 290 ng·h/mL
- AUC(0-inf) [1, 3]: 343 ng·h/mL
- half-life ([1]; male, human, plasma, other: colonic (nasoenteral tube into the transverse colon), 30 mg, TRT A: rabeprazole 30 mg solution in the colon over 20 hours, subset N = 14, read-out: t1/2 (median) (converted)): 120 min
- Tmax ([1]; male, human, plasma, other: colonic (nasoenteral tube into the transverse colon), 60 mg, 60 mg rabeprazole colonic solution treatment, after start of treatment (colon infusion ended at 20 hr), read-out: median Tmax): ~18 h
- AUC(0-t) [1, 4]: 549 ng·h/mL
- AUC(0-inf) [1, 4]: 599 ng·h/mL
- Tmax ([1]; male, human, plasma, other: colonic (nasoenteral tube into the transverse colon), 60 mg, TRT B: rabeprazole 60 mg solution in the colon over 20 hours, N = 19, read-out: Tmax (median)): 18 h
- half-life ([1]; male, human, plasma, other: colonic (nasoenteral tube into the transverse colon), 60 mg, TRT B: rabeprazole 60 mg solution in the colon over 20 hours, N = 19, read-out: t1/2 (median) (converted)): 114 min
- Cmax ([1]; male, human, plasma, other: colonic (nasoenteral tube into the transverse colon), 60 mg, TRT B: rabeprazole 60 mg solution in the colon over 20 hours, single dose, healthy males, N = 19): 38.4 ng/mL
- AUC(0-t) [1, 5]: 586 ng·h/mL
- AUC(0-inf) [1, 5]: 646 ng·h/mL
- half-life ([1]; male, human, plasma, other: colonic (nasoenteral tube into the transverse colon), 60 mg, TRT B: rabeprazole 60 mg solution in the colon over 20 hours, subset N = 14, read-out: t1/2 (median) (converted)): 126 min
- half-life ([1]; male, human, plasma, other: colonic (nasoenteral tube into the transverse colon), rabeprazole following colonic treatment, read-out: median plasma half-life (converted)): ~120 min
- bioavailability ([1]; male, human, plasma, other: colonic (nasoenteral tube into the transverse colon), colonic treatment compared to oral tablets, dose-normalized basis, read-out: percent relative bioavailability (colonic bioavailability)): ~40%
- Cmax ([1]; male, human, plasma, other: colonic (transverse colon, via nasoenteral tube), 30 mg, TRT A: rabeprazole 30 mg solution in the colon over 20 hours, subset N = 14): 18.7 ng/mL
- Tmax ([1]; male, human, plasma, other: colonic (transverse colon, via nasoenteral tube), 30 mg, TRT A: rabeprazole 30 mg solution in the colon over 20 hours, subset N = 14, read-out: Tmax (median)): 18 h
- Cmax ([1]; male, human, plasma, other: colonic (transverse colon, via nasoenteral tube), 60 mg, TRT B: rabeprazole 60 mg solution in the colon over 20 hours, subset N = 14): 43.7 ng/mL
- Tmax ([1]; male, human, plasma, other: colonic (transverse colon, via nasoenteral tube), 60 mg, TRT B: rabeprazole 60 mg solution in the colon over 20 hours, subset N = 14, read-out: Tmax (median)): 18 h
- Tmax ([1]; male, human, plasma, po, 20 mg, 20 mg rabeprazole oral tablet treatment, read-out: median Tmax): 4.5 to 6 h
- AUC(0-t) [1, 6]: 534 ng·h/mL
- AUC(0-inf) [1, 6]: 603 ng·h/mL
- Tmax ([1]; male, human, plasma, po, 20 mg, TRT C: rabeprazole 20 mg oral tablet, N = 19, read-out: Tmax (median)): 4.5 h
- half-life ([1]; male, human, plasma, po, 20 mg, TRT C: rabeprazole 20 mg oral tablet, N = 19, read-out: t1/2 (median) (converted)): 57.6 min
- Cmax ([1]; male, human, plasma, po, 20 mg, TRT C: rabeprazole 20 mg oral tablet, single dose, healthy males, N = 19): 239 ng/mL
- AUC(0-t) [1, 7]: 619 ng·h/mL
- Cmax [1, 7]: 267 ng/mL
- AUC(0-inf) [1, 7]: 697 ng·h/mL
- Tmax ([1]; male, human, plasma, po, 20 mg, TRT C: rabeprazole 20 mg oral tablet, subset N = 14, read-out: Tmax (median)): 6 h
- half-life ([1]; male, human, plasma, po, 20 mg, TRT C: rabeprazole 20 mg oral tablet, subset N = 14, read-out: t1/2 (median) (converted)): 60 min
- half-life ([1]; male, human, plasma, po, 20 mg, rabeprazole following oral administration, read-out: median plasma half-life (converted)): ~60 min
- AUC compared with 20 mg oral tablet ([1]; rabeprazole 60 mg colonic treatment): comparable AUC
